We go through 35 compounds from patent US20250145633A1, “SUBSTITUTED FURANOPYRIMIDINE COMPOUNDS AS PDE1 INHIBITORS” (Dart NeuroScience, LLC, priority 2017, published 2025).

For one assay, the target named is human PDE1B enzyme (Homo sapiens (Human), UniProt Q01064). Briefly: IMAP TR-FRET PDE1B enzymatic assay. The assay is classed as biochemical. Particulars: negative log of half-maximal molar inhibitory concentration; 200 nM FAM-cAMP; values given as bins. An outline of the steps:
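Full-length GST-tagged human PDE1B (250 pg/well) in IMAP BSA buffer with 10 U/ml calmodulin and 2.5 mM CaCl2; compound pre-incubated 5 min at room temperature, then 200 nM (final) FAM-cAMP for 30 min. IMAP binding reagent/Tb added, 1 h; TR-FRET 520/490 ratio read. IC50 from sigmoidal dose-response fit.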
On the technique in general: Time-resolved FRET reads energy transfer from a long-lived donor to a nearby acceptor.
On to `COc1ccc(CNC(=O)c2c(C)oc3ncnc(NC4(C)CC4)c23)c(F)c1F` [Example 185, N-[(2,3-Difluoro-4-methoxyphenyl)methyl]-6-methyl-4-[(1-methylcyclopropyl)amino]furo[2,3-d]pyrimidine-5-carboxamide], for which the “PDE1b (pIC50)” value is over 8.

Regarding `Cc1oc2ncnc(NC3(C)CC3)c2c1C(=O)NC1CCN(C)CC1` [Example 193, 6-Methyl-4-[(1-methylcyclopropyl)amino]-N-(1-methylpiperidin-4-yl)furo[2,3-d]pyrimidine-5-carboxamide], the “PDE1b (pIC50)” value is on record as under 6.

On to `Cc1oc2ncnc(NC3(C)CC3)c2c1C(=O)NC(C)c1ccccc1` (centres unmarked) [Example 194, 6-Methyl-4-[(1-methylcyclopropyl)amino]-N-(1-phenylethyl)furo[2,3-d]pyrimidine-5-carboxamide], for which the “PDE1b (pIC50)” value is over 8.

Consider `Cc1ccc(CNC(=O)c2c(C)oc3ncnc(NC4(C)CC4)c23)cc1` [Example 196, 6-Methyl-4-[(1-methylcyclopropyl)amino]-N-[(4-methylphenyl)methyl]furo[2,3-d]pyrimidine-5-carboxamide], for which the “PDE1b (pIC50)” value is recorded as over 8.

As to `COc1ccccc1[C@H]1[C@@H]2CN(C(=O)c3c(C)oc4ncnc(NC5(C)CC5)c34)C[C@@H]21` [Example 209, 5-[(1R,5S,6S)-6-(2-Methoxyphenyl)-3-azabicyclo[3.1.0]hexane-3-carbonyl]-6-methyl-N-(1-methylcyclopropyl)furo[2,3-d]pyrimidin-4-amine], the “PDE1b (pIC50)” value is over 8.

As for `Cc1oc2ncnc(NC3(C)CC3)c2c1C(=O)NCc1cccc(F)c1` [Example 217, N-[(3-Fluorophenyl)methyl]-6-methyl-4-[(1-methylcyclopropyl)amino]furo[2,3-d]pyrimidine-5-carboxamide], the “PDE1b (pIC50)” value is given as over 8.

Staying with this assay, now noted: negative log of half-maximal molar inhibitory concentration; 200 nM FAM-cAMP; values given as bins; read-out: PDE1b (pIC50) (converted).
Consider `CCOCCNC(=O)c1c(C)oc2ncnc(NC3(C)CC3)c12` [Example 171, N-(2-Rthoxyethyl)-6-methyl-4-[(1-methylcyclopropyl)amino]furo[2,3-d]pyrimidine-5-carboxamide], for which the IC50 is 100 to 1000 nM.

For the compound `Cc1oc2ncnc(NC3(C)CC3)c2c1C(=O)Nc1ccnn1C` [Example 174, 6-Methyl-N-(1-methyl-1H-pyrazol-5-yl)-4-[(1-methylcyclopropyl)amino]furo[2,3-d]pyrimidine-5-carboxamide], the IC50 is 100 to 1000 nM.

Consider `Cc1oc2ncnc(NC3(C)CC3)c2c1C(=O)NCC1CCCO1` (centres unmarked) [Example 175, 6-Methyl-4-[(1-methylcyclopropyl)amino]-N-(oxolan-2-ylmethyl)furo[2,3-d]pyrimidine-5-carboxamide], for which the IC50 was 10 to 100 nM.

In the case of `Cc1oc2ncnc(NC3(C)CC3)c2c1C(=O)NCCOC(C)C` [Example 176, 6-Methyl-4-[(1-methylcyclopropyl)amino]-N-[2-(propan-2-yloxy)ethyl]furo[2,3-d]pyrimidine-5-carboxamide], the IC50 was 10 to 100 nM.

`Cc1oc2ncnc(NC3(C)CC3)c2c1C(=O)NCc1ccccc1` [Example 177, N-Benzyl-6-methyl-4-[(1-methylcyclopropyl)amino]furo[2,3-d]pyrimidine-5-carboxamide]: the IC50 is 10 to 100 nM.

As for `Cc1ccccc1NC(=O)c1c(C)oc2ncnc(NC3(C)CC3)c12` [Example 178, 6-Methyl-4-[(1-methylcyclopropyl)amino]-N-(2-methylphenyl)furo[2,3-d]pyrimidine-5-carboxamide], the IC50 is 10 to 100 nM.

Consider `Cc1cccc(NC(=O)c2c(C)oc3ncnc(NC4(C)CC4)c23)c1` [Example 180, 6-Methyl-4-[(1-methylcyclopropyl)amino]-N-(3-methylphenyl)furo[2,3-d]pyrimidine-5-carboxamide], for which the IC50 is 10 to 100 nM.

Regarding `Cc1ncccc1NC(=O)c1c(C)oc2ncnc(NC3(C)CC3)c12` [Example 181, 6-Methyl-4-[(1-methylcyclopropyl)amino]-N-(2-methylpyridin-3-yl)furo[2,3-d]pyrimidine-5-carboxamide], the IC50 was 10 to 100 nM.

For `Cc1oc2ncnc(NC3(C)CC3)c2c1C(=O)NCc1ccc(N2CCOCC2)cc1` [Example 184, 6-Methyl-4-[(1-methylcyclopropyl)amino]-N-{[4-(morpholin-4-yl)phenyl]methyl}furo[2,3-d]pyrimidine-5-carboxamide], the IC50 was 10 to 100 nM.

Consider `COc1ccc(N2CCN(C(=O)c3c(C)oc4ncnc(NC5(C)CC5)c34)CC2)cc1` [Example 186, 5-[4-(4-Methoxyphenyl)piperazine-1-carbonyl]-6-methyl-N-(1-methylcyclopropyl)furo[2,3-d]pyrimidin-4-amine], for which the IC50 was 10 to 100 nM.

For `Cc1oc2ncnc(NC3(C)CC3)c2c1C(=O)NCCc1ccco1` [Example 188, N-[2-(Furan-2-yl)ethyl]-6-methyl-4-[(1-methylcyclopropyl)amino]furo[2,3-d]pyrimidine-5-carboxamide], the IC50 is 10 to 100 nM.

`Cc1oc2ncnc(NC3(C)CC3)c2c1C(=O)NCCn1ccnc1` [Example 189, N-[2-(1H-Imidazol-1-yl)ethyl]-6-methyl-4-[(1-methylcyclopropyl)amino]furo[2,3-d]pyrimidine-5-carboxamide]: the IC50 was 100 to 1000 nM.

Regarding `Cc1oc2ncnc(NC3(C)CC3)c2c1C(=O)NCc1cccs1` [Example 190, 6-Methyl-4-[(1-methylcyclopropyl)amino]-N-(thiophen-2-ylmethyl)furo[2,3-d]pyrimidine-5-carboxamide], the IC50 is 10 to 100 nM.

Turning to `Cc1oc2ncnc(NC3(C)CC3)c2c1C(=O)NCc1ccsc1` [Example 191, 6-Methyl-4-[(1-methylcyclopropyl)amino]-N-(thiophen-3-ylmethyl)furo[2,3-d]pyrimidine-5-carboxamide], the IC50 is 10 to 100 nM.

Turning to `Cc1oc2ncnc(NC3(C)CC3)c2c1C(=O)NCC1CCCCC1` [Example 192, N-(Cyclohexylmethyl)-6-methyl-4-[(1-methylcyclopropyl)amino]furo[2,3-d]pyrimidine-5-carboxamide], the IC50 is 10 to 100 nM.

For `Cc1oc2ncnc(NC3(C)CC3)c2c1C(=O)NCCc1ccccc1` [Example 195, 6-Methyl-4-[(1-methylcyclopropyl)amino]-N-(2-phenylethyl)furo[2,3-d]pyrimidine-5-carboxamide], the IC50 was 10 to 100 nM.

For the compound `Cc1cccc(CNC(=O)c2c(C)oc3ncnc(NC4(C)CC4)c23)c1` [Example 198, 6-Methyl-4-[(1-methylcyclopropyl)amino]-N-[(3-methylphenyl)methyl]furo[2,3-d]pyrimidine-5-carboxamide], the IC50 was 10 to 100 nM.

With `COc1cccc(CN(C)C(=O)c2c(C)oc3ncnc(NC4(C)CC4)c23)c1` [Example 203, N-[(3-Methoxyphenyl)methyl]-N,6-dimethyl-4-[(1-methylcyclopropyl)amino]furo[2,3-d]pyrimidine-5-carboxamide], the IC50 is 10 to 100 nM.

For the compound `Cc1oc2ncnc(NC3(C)CC3)c2c1C(=O)NCCc1cccc(Cl)c1` [Example 204, N-[2-(3-Chlorophenyl)ethyl]-6-methyl-4-[(1-methylcyclopropyl)amino]furo[2,3-d]pyrimidine-5-carboxamide], the IC50 was 10 to 100 nM.

For the compound `Cc1oc2ncnc(NC3(C)CC3)c2c1C(=O)NCCc1c[nH]c2ccc(F)cc12` [Example 207, N-[2-(5-Fluoro-1H-indol-3-yl)ethyl]-6-methyl-4-[(1-methylcyclopropyl)amino]furo[2,3-d]pyrimidine-5-carboxamide], the IC50 is 10 to 100 nM.

As for `Cc1oc2ncnc(NC3(C)CC3)c2c1C(=O)N1C[C@@H]2[C@H](C1)[C@H]2c1ccccc1` [Example 208, 6-Methyl-N-(1-methylcyclopropyl)-5-[(1R,5S,6S)-6-phenyl-azabicyclo[3.1.0]hexane-3-carbonyl]furo[2,3-d]pyrimidin-4-amine], the IC50 is 10 to 100 nM.

Take `C#CCNC(=O)c1c(C)oc2ncnc(NC3(C)CC3)c12` [Example 210, 6-Methyl-4-[(1-methylcyclopropyl)amino]-N-(prop-2-yn-1-yl)furo[2,3-d]pyrimidine-5-carboxamide]: the IC50 was 10 to 100 nM.

Consider `CCCNC(=O)c1c(C)oc2ncnc(NC3(C)CC3)c12` [Example 211, 6-Methyl-4-[(1-methylcyclopropyl)amino]-N-propylfuro[2,3-d]pyrimidine-5-carboxamide], for which the IC50 was 10 to 100 nM.

For the compound `Cc1oc2ncnc(NC3(C)CC3)c2c1C(=O)NC1CCC1` [Example 212, N-Cyclobutyl-6-methyl-4-[(1-methylcyclopropyl)amino]furo[2,3-d]pyrimidine-5-carboxamide], the IC50 was 10 to 100 nM.

With `CCCCNC(=O)c1c(C)oc2ncnc(NC3(C)CC3)c12` [Example 213, N-Butyl-6-methyl-4-[(1-methylcyclopropyl)amino]furo[2,3-d]pyrimidine-5-carboxamide], the IC50 was 10 to 100 nM.

For the compound `Cc1oc2ncnc(NC3(C)CC3)c2c1C(=O)N(C)Cc1ccccn1` [Example 214, N,6-Dimethyl-4-[(1-methylcyclopropyl)amino]-N-(pyridin-2-ylmethyl)furo[2,3-d]pyrimidine-5-carboxamide], the IC50 is 100 to 1000 nM.

Consider `Cc1oc2ncnc(NC3(C)CC3)c2c1C(=O)N(C)Cc1cccnc1` [Example 215, N,6-Dimethyl-4-[(1-methylcyclopropyl)amino]-N-(pyridin-3-ylmethyl)furo[2,3-d]pyrimidine-5-carboxamide], for which the IC50 is 100 to 1000 nM.

Regarding `Cc1oc2ncnc(NC3(C)CC3)c2c1C(=O)NCc1ccccc1F` [Example 218, N-[(2-Fluorophenyl)methyl]-6-methyl-4-[(1-methylcyclopropyl)amino]furo[2,3-d]pyrimidine-5-carboxamide], the IC50 was 10 to 100 nM.

In the case of `Cc1oc2ncnc(NC3(C)CC3)c2c1C(=O)NCCCn1ccnc1` [Example 220, N-[3-(1H-Imidazol-1-yl)propyl]-6-methyl-4-[(1-methylcyclopropyl)amino]furo[2,3-d]pyrimidine-5-carboxamide], the IC50 is 10 to 100 nM.
